Experimental data published in ChEMBL document CHEMBL5034019, “Discovery of the Next-Generation Pan-TRK Kinase Inhibitors for the Treatment of Cancer” (J Med Chem, 2021).
≈ marks a conversion by molar mass, not a printed value.

Assays:
[1] = Apparent permeability across apical to basolateral side in human Caco-2 cells incubated for 2 hrs by LC-MS/MS analysis; type: ADME, cell-based
[2] = Metabolic stability in human liver microsomes assessed as intrinsic clearance at 1 uM by LC-MS/MS analysis; type: ADME, Microsome; settings: read-out: CLH
[3] = Metabolic stability in rat liver microsomes assessed as intrinsic clearance at 1 uM by LC-MS/MS analysis; type: ADME, Microsome; settings: read-out: CLH
[4] = Metabolic stability in mouse liver microsomes assessed as intrinsic clearance at 1 uM by LC-MS/MS analysis; type: ADME, Microsome; settings: read-out: CLH
[5] = Metabolic stability in dog liver microsomes assessed as intrinsic clearance at 1 uM by LC-MS/MS analysis; type: ADME, Canis lupus familiaris, Microsome; settings: read-out: CLH
[6] = Protein binding in human plasma assessed as unbound fraction by LC-MS/MS based equilibrium dialysis method; type: ADME, cell-free
[7] = Protein binding in rat plasma assessed as unbound fraction by LC-MS/MS based equilibrium dialysis method; type: ADME, cell-free
[8] = Protein binding in mouse plasma assessed as unbound fraction by LC-MS/MS based equilibrium dialysis method; type: ADME, cell-free
[9] = Protein binding in dog plasma assessed as unbound fraction by LC-MS/MS based equilibrium dialysis method; type: ADME, cell-free, Canis lupus familiaris
Cytochrome P450 1A2 = biological target: T1, Cytochrome P450 1A2 (Homo sapiens, UniProt P05177); test: Inhibition of CYP1A2 in human pooled liver microsomes using phenacetin as substrate in presence of NADPH by LC-MS/MS analysis; type: ADME
T1 sequence (P05177 whole entry): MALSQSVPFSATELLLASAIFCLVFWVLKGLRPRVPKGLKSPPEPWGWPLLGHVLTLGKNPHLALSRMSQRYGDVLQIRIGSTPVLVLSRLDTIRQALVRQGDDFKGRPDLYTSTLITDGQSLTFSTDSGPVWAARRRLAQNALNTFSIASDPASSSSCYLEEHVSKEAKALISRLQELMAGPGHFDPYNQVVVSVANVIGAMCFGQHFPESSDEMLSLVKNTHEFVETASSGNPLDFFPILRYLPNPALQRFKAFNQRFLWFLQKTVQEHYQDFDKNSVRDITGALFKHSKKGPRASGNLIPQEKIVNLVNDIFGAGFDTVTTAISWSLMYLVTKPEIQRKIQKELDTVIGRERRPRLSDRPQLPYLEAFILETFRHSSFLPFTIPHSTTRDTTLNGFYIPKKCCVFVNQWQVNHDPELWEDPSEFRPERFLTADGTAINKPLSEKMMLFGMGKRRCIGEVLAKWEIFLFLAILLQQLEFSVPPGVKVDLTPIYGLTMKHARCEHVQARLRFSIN

Cytochrome P450 2C9 = Cytochrome P450 2C9 (Homo sapiens, UniProt P11712); test: Inhibition of CYP2C9 in human pooled liver microsomes using diclofenac as substrate in presence of NADPH by LC-MS/MS analysis; type: ADME
Cytochrome P450 2C19 = Cytochrome P450 2C19 (Homo sapiens, UniProt P33261); test: Inhibition of CYP2C19 in human pooled liver microsomes using S-mephenytoin as substrate in presence of NADPH by LC-MS/MS analysis; type: ADME
Cytochrome P450 2D6 = Cytochrome P450 2D6 (Homo sapiens, UniProt P10635); test: Inhibition of CYP2D6 in human pooled liver microsomes using dextromethorphan as substrate in presence of NADPH by LC-MS/MS analysis; type: ADME
Cytochrome P450 3A4 = Cytochrome P450 3A4 (Homo sapiens, UniProt P08684); test: Inhibition of CYP3A4 in human pooled liver microsomes using midazolam and testosterone as substrate in presence of NADPH by LC-MS/MS analysis; type: ADME
[10] = C0 in Sprague-Dawley rat at 3 mg/kg measured up to 24 hrs by LC/MS/MS analysis; type: ADME, organism-based; settings: in vivo
[11] = Tmax in Sprague-Dawley rat at 10 mg/kg, po measured up to 24 hrs by LC-MS analysis; type: ADME, organism-based; settings: in vivo
BaF3 [12] = test: Cytotoxicity against mouse BaF3 cells transfected with TrKA G595R mutant assessed as reduction in cell viability by MTT assay; type: functional, cell-based
BaF3 [13] = test: Cytotoxicity against mouse BaF3 cells transfected with TrKA F589L mutant assessed as reduction in cell viability by MTT assay; type: functional, cell-based
BaF3 [14] = test: Cytotoxicity against mouse BaF3 cells transfected with TrKA G667A mutant assessed as reduction in cell viability by MTT assay; type: functional, cell-based
BaF3 [15] = test: Cytotoxicity against mouse BaF3 cells transfected with TrKA G623R mutant assessed as reduction in cell viability by MTT assay; type: functional, cell-based
BaF3 [16] = test: Cytotoxicity against mouse BaF3 cells transfected with SLC34A2-Ros1 assessed as reduction in cell viability by MTT assay; type: functional, cell-based
BaF3 [17] = test: cells; settings: Mus musculus
Description: Cytotoxicity against mouse BaF3 cells transfected with TrKA assessed as reduction in cell viability by MTT assay

[18] = Toxicity in mouse xenografted with mouse BaF3 cells transfected with LMNA-NTRK1 assessed as death at 100 mg/kg, po administered once daily for 21 days and measured twice weekly; settings: in vivo, 504 h
[19] = Kinetic solubility of the compound; type: physicochemical; settings: read-out: Kinetic_solubility
[20] = test system: Tyrosine-protein kinase Blk (Homo sapiens), P51451 [UNDEFINED MUTATION]; test: Inhibition of full-length recombinant human BLK M287V mutant assessed as residual activity at 0.5 uM using poly(Glu, Tyr) 4:1 as substrate measured after 40 mins in presence of [gamma33P]ATP by scintillation counting method relative to control
[21] = test system: Epidermal growth factor receptor (Homo sapiens), P00533 [L861Q]; test: Inhibition of recombinant human EGFR L861Q mutant (696 to end residues) assessed as residual activity at 0.5 uM using poly(Glu, Tyr) 4:1 as substrate at 40 mins in presence of [gamma-33ATP] by scintillation counting based radiometry assay relative to control
[22] = test system: Epidermal growth factor receptor (Homo sapiens), P00533 [T790M]; test: Inhibition of recombinant human EGFR T790M mutant (696 to end residues) assessed as residual activity at 0.5 uM using poly(Glu, Tyr) 4:1 as substrate at 40 mins in presence of [gamma-33ATP] by scintillation counting based radiometry assay relative to control
[23] = test system: Hepatocyte growth factor receptor (Homo sapiens), P08581 [Y1248D]; test: Inhibition of recombinant human Met Y1248D mutant (974 to end residues) assessed as residual activity at 0.5 uM using KKKGQEEEYVFIE as substrate incubated for 40 mins in presence of [gamma-33P]-ATP by scintillation counting method relative to control
[24] = test system: Platelet-derived growth factor receptor alpha (Homo sapiens), P16234 [D842V]; test: Inhibition of human PDGFRalpha D842V mutant (550 to end residues) assessed as residual activity at 0.5 uM using poly(Glu, Tyr) 4:1 as substrate measured after 40 mins in presence of [gamma33P]ATP by scintillation counting based radiometry assay relative to control
[25] = test system: Proto-oncogene tyrosine-protein kinase receptor Ret (Homo sapiens), P07949 [V804L]; test: Inhibition of recombinant human Ret V804L mutant (658 to end residues) assessed as residual activity at 0.5 uM using KKKSPGEYVNIEFG as substrate incubated for 40 mins in presence of [gamma33P]ATP by scintillation counting based radiometry assay relative to control
Proto-oncogene tyrosine-protein kinase receptor Ret (Homo sapiens), P07949 [V804L], sequence (P07949 whole entry V804L): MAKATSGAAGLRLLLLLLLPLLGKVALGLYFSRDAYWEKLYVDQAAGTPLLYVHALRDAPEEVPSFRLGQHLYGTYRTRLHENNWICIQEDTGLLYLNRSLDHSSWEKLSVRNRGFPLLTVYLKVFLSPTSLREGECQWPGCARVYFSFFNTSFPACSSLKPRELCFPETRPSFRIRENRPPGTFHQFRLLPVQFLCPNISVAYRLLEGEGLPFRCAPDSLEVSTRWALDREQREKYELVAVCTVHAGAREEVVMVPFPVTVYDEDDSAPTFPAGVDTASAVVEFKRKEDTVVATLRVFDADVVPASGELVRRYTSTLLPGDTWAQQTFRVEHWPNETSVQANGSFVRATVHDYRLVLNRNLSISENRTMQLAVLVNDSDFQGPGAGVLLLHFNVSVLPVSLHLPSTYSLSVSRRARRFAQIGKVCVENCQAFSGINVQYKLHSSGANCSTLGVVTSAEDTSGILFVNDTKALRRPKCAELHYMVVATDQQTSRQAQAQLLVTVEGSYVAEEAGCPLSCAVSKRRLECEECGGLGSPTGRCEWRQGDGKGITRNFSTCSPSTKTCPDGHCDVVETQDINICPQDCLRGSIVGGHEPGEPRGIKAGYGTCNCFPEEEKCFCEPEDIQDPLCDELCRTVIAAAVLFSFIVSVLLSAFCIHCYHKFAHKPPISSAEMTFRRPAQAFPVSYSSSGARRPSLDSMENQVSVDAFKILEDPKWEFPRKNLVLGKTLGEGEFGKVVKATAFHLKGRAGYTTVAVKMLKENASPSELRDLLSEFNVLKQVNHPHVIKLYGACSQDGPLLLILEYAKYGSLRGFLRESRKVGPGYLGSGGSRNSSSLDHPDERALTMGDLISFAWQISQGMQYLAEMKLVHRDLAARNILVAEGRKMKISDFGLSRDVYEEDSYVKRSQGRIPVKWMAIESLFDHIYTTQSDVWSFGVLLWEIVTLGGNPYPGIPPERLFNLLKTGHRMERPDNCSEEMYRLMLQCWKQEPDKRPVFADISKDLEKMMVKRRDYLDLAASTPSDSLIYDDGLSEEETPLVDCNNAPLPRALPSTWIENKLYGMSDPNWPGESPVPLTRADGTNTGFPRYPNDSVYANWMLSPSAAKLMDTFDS

Cytochrome P450 2C19, sequence (P33261 whole entry): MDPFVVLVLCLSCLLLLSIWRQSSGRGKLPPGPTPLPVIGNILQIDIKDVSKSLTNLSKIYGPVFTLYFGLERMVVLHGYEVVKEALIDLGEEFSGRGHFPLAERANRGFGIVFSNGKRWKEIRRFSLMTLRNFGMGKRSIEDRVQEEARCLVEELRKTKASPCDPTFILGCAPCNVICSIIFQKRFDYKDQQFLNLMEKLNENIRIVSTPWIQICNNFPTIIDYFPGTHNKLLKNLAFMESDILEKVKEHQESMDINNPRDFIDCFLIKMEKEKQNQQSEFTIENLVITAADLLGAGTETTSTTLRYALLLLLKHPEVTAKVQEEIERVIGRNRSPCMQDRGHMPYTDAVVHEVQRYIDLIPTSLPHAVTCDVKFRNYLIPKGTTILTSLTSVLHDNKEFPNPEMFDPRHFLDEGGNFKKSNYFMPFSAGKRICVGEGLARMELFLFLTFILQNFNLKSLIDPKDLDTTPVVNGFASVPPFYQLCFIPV
Cytochrome P450 2D6, sequence (P10635 whole entry): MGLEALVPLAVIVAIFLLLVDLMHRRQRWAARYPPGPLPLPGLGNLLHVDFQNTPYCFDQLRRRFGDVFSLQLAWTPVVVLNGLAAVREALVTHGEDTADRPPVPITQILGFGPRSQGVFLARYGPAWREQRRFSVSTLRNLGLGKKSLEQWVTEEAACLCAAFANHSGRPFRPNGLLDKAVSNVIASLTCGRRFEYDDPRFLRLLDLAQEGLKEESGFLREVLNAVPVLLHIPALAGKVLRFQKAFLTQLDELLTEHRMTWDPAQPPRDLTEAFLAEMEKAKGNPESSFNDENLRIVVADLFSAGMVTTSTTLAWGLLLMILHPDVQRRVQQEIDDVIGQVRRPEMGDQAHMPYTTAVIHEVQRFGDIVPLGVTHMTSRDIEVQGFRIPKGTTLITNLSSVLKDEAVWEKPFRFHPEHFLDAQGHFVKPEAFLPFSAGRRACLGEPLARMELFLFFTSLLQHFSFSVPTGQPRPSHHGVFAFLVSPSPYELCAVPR
Cytochrome P450 2C9, sequence (P11712 whole entry): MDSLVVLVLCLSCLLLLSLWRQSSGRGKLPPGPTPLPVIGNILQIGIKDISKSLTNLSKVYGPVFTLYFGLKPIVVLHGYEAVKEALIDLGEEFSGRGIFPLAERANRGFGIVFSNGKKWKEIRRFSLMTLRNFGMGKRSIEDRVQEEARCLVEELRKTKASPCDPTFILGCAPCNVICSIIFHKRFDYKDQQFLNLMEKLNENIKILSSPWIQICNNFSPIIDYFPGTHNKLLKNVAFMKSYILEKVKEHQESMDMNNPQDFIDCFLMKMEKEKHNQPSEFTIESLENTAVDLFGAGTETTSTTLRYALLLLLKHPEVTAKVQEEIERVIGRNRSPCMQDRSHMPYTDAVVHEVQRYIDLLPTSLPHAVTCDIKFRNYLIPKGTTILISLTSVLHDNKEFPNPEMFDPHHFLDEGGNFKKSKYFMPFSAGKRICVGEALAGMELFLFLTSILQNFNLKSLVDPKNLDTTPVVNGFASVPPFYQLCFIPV
Cytochrome P450 3A4, sequence (P08684 whole entry): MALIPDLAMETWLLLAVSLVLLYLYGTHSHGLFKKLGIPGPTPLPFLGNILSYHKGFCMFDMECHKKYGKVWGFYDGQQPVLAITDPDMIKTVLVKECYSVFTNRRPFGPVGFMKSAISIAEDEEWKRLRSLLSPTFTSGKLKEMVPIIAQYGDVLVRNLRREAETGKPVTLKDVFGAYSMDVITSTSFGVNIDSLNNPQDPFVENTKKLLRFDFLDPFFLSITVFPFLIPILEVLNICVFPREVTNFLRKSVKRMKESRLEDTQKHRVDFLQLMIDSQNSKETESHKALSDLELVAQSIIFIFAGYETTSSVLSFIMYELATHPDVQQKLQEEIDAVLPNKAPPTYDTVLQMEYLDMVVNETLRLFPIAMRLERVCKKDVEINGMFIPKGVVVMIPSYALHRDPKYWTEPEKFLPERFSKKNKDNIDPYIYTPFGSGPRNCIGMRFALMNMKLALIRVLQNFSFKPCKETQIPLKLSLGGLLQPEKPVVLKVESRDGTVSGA
Tyrosine-protein kinase Blk (Homo sapiens), P51451 [UNDEFINED MUTATION], sequence (P51451 whole entry, looked up, stated change not applied): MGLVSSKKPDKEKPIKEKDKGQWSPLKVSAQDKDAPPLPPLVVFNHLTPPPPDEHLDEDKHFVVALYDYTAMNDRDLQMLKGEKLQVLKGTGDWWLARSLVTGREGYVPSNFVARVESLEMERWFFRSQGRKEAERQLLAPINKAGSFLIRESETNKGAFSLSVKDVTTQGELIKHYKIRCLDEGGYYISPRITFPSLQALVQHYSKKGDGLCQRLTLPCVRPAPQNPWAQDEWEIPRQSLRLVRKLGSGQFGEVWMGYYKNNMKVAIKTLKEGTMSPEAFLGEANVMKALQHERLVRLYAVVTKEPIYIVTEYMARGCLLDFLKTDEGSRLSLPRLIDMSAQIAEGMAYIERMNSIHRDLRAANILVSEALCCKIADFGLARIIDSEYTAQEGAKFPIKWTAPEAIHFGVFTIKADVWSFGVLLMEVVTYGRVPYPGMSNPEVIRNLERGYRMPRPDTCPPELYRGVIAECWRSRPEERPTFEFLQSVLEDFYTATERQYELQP
Platelet-derived growth factor receptor alpha (Homo sapiens), P16234 [D842V], sequence (P16234 whole entry D842V): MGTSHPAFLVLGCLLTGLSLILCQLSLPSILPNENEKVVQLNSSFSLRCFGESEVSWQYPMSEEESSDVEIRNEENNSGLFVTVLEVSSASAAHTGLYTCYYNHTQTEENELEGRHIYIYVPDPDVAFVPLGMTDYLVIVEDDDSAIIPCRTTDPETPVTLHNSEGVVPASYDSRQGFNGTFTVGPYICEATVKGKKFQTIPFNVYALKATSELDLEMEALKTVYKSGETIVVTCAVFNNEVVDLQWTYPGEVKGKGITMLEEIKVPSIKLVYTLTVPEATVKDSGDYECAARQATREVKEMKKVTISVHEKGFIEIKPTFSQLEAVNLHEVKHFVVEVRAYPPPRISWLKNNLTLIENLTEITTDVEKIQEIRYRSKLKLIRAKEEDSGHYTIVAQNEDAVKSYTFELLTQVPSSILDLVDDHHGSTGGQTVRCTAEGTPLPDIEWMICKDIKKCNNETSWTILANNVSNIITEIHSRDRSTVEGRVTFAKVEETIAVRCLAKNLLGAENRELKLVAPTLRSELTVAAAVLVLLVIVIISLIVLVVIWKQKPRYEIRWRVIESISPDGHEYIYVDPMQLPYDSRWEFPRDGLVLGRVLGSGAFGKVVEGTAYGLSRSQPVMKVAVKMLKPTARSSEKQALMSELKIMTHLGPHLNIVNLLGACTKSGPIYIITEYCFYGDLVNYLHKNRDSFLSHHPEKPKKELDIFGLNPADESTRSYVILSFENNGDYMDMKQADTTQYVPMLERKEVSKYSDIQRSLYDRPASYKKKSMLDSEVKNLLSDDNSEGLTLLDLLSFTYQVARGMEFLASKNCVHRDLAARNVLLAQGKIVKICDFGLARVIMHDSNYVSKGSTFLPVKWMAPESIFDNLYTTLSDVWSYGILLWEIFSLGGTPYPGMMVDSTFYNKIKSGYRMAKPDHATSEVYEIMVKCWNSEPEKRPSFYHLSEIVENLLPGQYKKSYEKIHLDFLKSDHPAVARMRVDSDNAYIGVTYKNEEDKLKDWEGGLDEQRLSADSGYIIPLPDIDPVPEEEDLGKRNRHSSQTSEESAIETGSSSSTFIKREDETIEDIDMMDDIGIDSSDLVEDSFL

SMILES | Papp A→B at 2 h [1] [×10⁻⁶ cm/s] | CLint scaled at 1 µM [2] [mL/min/kg] | CLint scaled at 1 µM [3] [mL/min/kg] | CLint scaled at 1 µM [4] [mL/min/kg] | CLint scaled at 1 µM [5] [mL/min/kg] | fraction unbound [6] | fraction unbound [7] | fraction unbound [8] | fraction unbound [9] | IC50 (Cytochrome P450 1A2) [nM] | IC50 (Cytochrome P450 2C9) [nM] | IC50 (Cytochrome P450 2C19) [nM] | IC50 (Cytochrome P450 2D6) [nM] | IC50 (Cytochrome P450 3A4) [nM] | IC50 (BaF3 [12]) [nM] | IC50 (BaF3 [13]) [nM] | IC50 (BaF3 [14]) [nM] | IC50 (BaF3 [15]) [nM] | IC50 (BaF3 [16]) [nM] | IC50 (BaF3 [17]) [nM] | also measured
C[C@@H]1CCc2ncc(F)cc2[C@H]2CCCN2c2ccn3ncc(c3n2)C(=O)N1 [SELITRECTINIB] | 8.4 | 76 | 92 | 1350 | 38 | 0.34 | 0.03 | 0.02 | 0.2 | > 50000 | > 50000 | > 50000 | > 50000 | > 50000 | 6.8 | 25.4 | 24.4 | 2.7 | 36.7 | 4.9 | C0 [10]: 23.779 µM; Tmax [11]: 24 min; Activity [18]: Toxic
O=C1NC2(CC2)COc2ncc(F)cc2[C@H]2COCCN2c2ccn3ncc1c3n2 | 12 | 17.7 | 28.8 | 1500 | < 10.7 | 0.16 | 0.12 | 0.11 | 0.21 | > 100000 | 18100 | 89000 | > 100000 | > 50000 | 7.7 | 4.9 | 0.8 | 2.7 | 2.3 | 0.6 | solubility kinetic [19]: 193 µM (≈ 79.2 µg/mL); Activity [20]: 46%; Activity [21]: 95%; Activity [22]: 105%; Activity [23]: 96%; Activity [24]: 102%; Activity [25]: 59%
